Results reported in patent US7985744B2, “Vitamin D derivatives” (Chugai Seiyaku Kabushiki Kaisha, priority 2000, dated 2011).

Legend:
[1] = Blood ionized calcium level in mice after percutaneous administration (Test Examples 1 and 3); format: in vivo; details: Balb/c mice, percutaneous single application, dose 1000 μg/kg, blood taken two days after administration
Experimental: Eight week old male Balb/c mice were percutaneously administered with active vitamin D3 (1α,25 (OH)2D3, 125 μg/ml in ethanol) or Compounds 1 to 5 (vitamin D derivatives prepared in the above Examples, 500 μg/ml in ethanol) or ethanol alone (as a control). These samples were applied once to the dorsal skin (about 1.5×2.0 cm^2) of the mice in a volume of 2 ml/kg. Each of the mice was then fitted with a necklace harness in order to avoid oral ingestion. On the next day, the administered sites were cleaned and the necklace harnesses were removed. Two days after administration, blood was taken from each mouse and assayed for ionized calcium level by the ion selective electrode method. The assay was performed in groups of 3 mice. […] Ionized calcium levels in the table are expressed as mean values.
The same procedures as shown in Test Example 1 were repeated to assay blood ionized calcium levels in mice, except that Compounds 6 to 12 were used as vitamin D derivatives. […] Ionized calcium levels in the table are expressed as mean values.

[2] = system: Keratinocytes from adult human skin; experiment: Growth inhibition against keratinocytes, [3H]thymidine incorporation (Test Example 4); format: cell-based; details: relative inhibition = IC50 of active vitamin D3 / IC50 of test compound
Experimental: Keratinocytes from adult human skin (Clonetics) were seeded in 96-well plates (COSTAR 3595) at a cell density of 1×10^3/well. The wells were then supplemented with the given concentrations of active vitamin D3 (1α,25 (OH)2D3) or Compounds 6 to 12, followed by incubation in KGM-2 medium at a cell density of 1×10^3 cells/200 μl/well for 3 days at 37° C. in 5% CO2 and 95% air. [^3H]Thymidine was added to each well (7.4 kBq/well) and the plates were further incubated for 1 day. After removal of the medium, each well was treated with 0.05% trypsin/0.53 mM EDTA to strip the cells. The amount of [^3H]thymidine incorporated into the cells was determined with a liquid scintillation counter (1450 MicroBeta, Wallac). […] Growth inhibition against keratinocytes in the table was expressed as a relative value of each compound compared to active vitamin D3: Relative inhibition=(IC50 (mol/l) of active vitamin D3)/(IC50 (mol/l) of test compound).

[3] = system: Keratinocytes from human neonatal foreskin; experiment: Growth inhibition against human keratinocytes, [3H]thymidine uptake (Test Example 2); format: cell-based; details: relative inhibition = IC50 of active vitamin D3 / IC50 of each compound
Experimental: Keratinocytes from human neonatal foreskin (Clonetics) were seeded in 96-well plates (COSTAR 3595) at a cell density of 2×10^3/well. The wells were then supplemented with the given concentrations of active vitamin D3 (1α,25 (OH)2D3) or Compounds 1 to 5, followed by incubation in KGM-2 medium at a cell density of 2×10^3 cells/200 μl/well for 3 days at 37° C. in 5% CO2 and 95% air. [^3H]Thymidine was added to each well (7.4 kBq/well) and the plates were further incubated for 1 day. Each well was washed once with calcium- and magnesium-free phosphate buffer (Dulbecco's PBS(−), Nissui, code 05913, pH 7.3-7.65) and then treated with 0.25% trypsin to strip the cells. The [^3H]thymidine uptake of the cells was determined by a liquid scintillation counter (1450 MicroBeta, Wallac). […] Growth inhibition against human keratinocytes in the table was expressed as a relative value of each compound compared to active vitamin D3: Relative inhibition=(IC50 (mol/l) of active vitamin D3)/(IC50 (mol/l) of each compound).

Compound	Blood ionized calcium level ([1]; Test Example 3, mean values) [mmol/L]	Growth inhibition against human keratinocytes (relative value) [2]	Blood ionized calcium level ([1]; Test Example 1, mean of 3 mice) [mmol/L]	Growth inhibition against human keratinocytes (relative value) [3]
1α,3β-dihydroxy-20(S)-(1,1-dimethylhexyloxycarbonylmethoxy)-9,10-secopregna-5,7,10(19),16-tetraene [Compound 10]	1.43	1.6		
1α,3β-dihydroxy-20(S)-(1-isopropyl-2-methylpropoxycarbonylmethoxy)-9,10-secopregna-5,7,10(19),16-tetraene [Compound 7]	1.28	0.4		
1α,3β-dihydroxy-20(S)-(N-tert-butyl-N-methylaminocarbonylmethoxy)-9,10-secopregna-5,7,10(19),16-tetraene [Compound 2]			2.27	5.9
1α,3β-dihydroxy-20(S)-(N-tert-butylaminocarbonylmethoxy)-9,10-secopregna-5,7,10(19),16-tetraene [Compound 4]			2.16	7.0
1α,25(OH)2D3		1.0		1.0
20(S)-(tert-butoxycarbonylmethoxy)-1α,3β-dihydroxy-9,10-secopregna-5,7,10(19),16-tetraene [Compound 1]			1.65	2.0
C=C1/C(=C\C=C2/CCC[C@]3(C)C([C@H](C)OCCC(=O)OC(C)(C)C)=CC[C@@H]23)C[C@@H](O)C[C@@H]1O [Compound 3, 1α,3β-dihydroxy-20(S)-(tert-butoxycarbonylethoxy)-9,10-secopregna-5,7,10(19),16-tetraene]				0.5
C=C1C(=CC=C2CCCC3(C)C(C(C)OCC(=O)OC(C)C)=CCC23)CC(O)CC1O [Compound 5, 1α,3β-dihydroxy-20(S)-(isopropoxycarbonylmethoxy)-9,10-secopregna-5,7,10(19),16-tetraene]			1.35	0.3
C=C1/C(=C\C=C2/CCC[C@]3(C)C([C@H](C)OCC(=O)OC(C)(CC)CC)=CC[C@@H]23)C[C@@H](O)C[C@@H]1O [Compound 6, 1α,3β-dihydroxy-20(S)-(1-ethyl-1-methylpropoxycarbonylmethoxy)-9,10-secopregna-5,7,10(19),16-tetraene]	1.57	12.0		
C=C1C(=CC=C2CCCC3(C)C(C(C)OCC(=O)OC(C)(C)CCC)=CCC23)CC(O)CC1O [Compound 8, 1α,3β-dihydroxy-20(S)-(1,1-dimethylbutoxycarbonylmethoxy)-9,10-secopregna-5,7,10(19),16-tetraene]	1.39	2.5		
C=C1C(=CC=C2CCCC3(C)C2CCC3C(C)OCC(=O)OC(C)(CC)CC)CC(O)CC1O [Compound 9, 1α,3β-dihydroxy-20(S)-(1-ethyl-1-methylpropoxycarbonylmethoxy)-9,10-secopregna-5,7,10(19)-triene]	1.55	0.7		
C=C1C(=CC=C2CCCC3(C)C(C(C)OCCC(=O)OC(C)(CC)CC)=CCC23)CC(O)CC1O [Compound 11, 1α,3β-dihydroxy-20(S)-{2-(1-ethyl-1-methylpropoxycarbonyl)ethoxy}-9,10-secopregna-5,7,10(19),16-tetraene]	1.42	0.4		
C=C1/C(=C\C=C2/CCC[C@]3(C)C([C@H](C)OCC(=O)NCC(F)(F)C(F)(F)F)=CC[C@@H]23)C[C@@H](O)C[C@@H]1O [Compound 12, {(1α,3β-dihydroxy-9,10-secopregna-5,7,10(19),16-tetraen-20(S)-yl)oxy}-N-(2,2,3,3,3-pentafluoropropyl)acetamide]	1.58	8.3		
